# Laboratory results taken from patent US6989371B1, “Bombesin analogs for treatment of cancer” (Dabur Research Foundation, priority 1996, dated 2006).
# Non-standard residues stand in square brackets, D forms with d. Residues, ends and D or L forms follow the SMILES beside them. Aib = CC(C)(N)C(=O)O
# What was measured:
# Assay in all cases: two day MTT cytotoxicity assay (Example 12)
# Format in all cases: cell-based, human
# [1] = test system: A549 (non small lung cell)
# Description: (§1) The cytoxicity of the peptide analog was carried out by two day MTT [3-(4,5-dimethylthiazol-2-yl)-2,5-diphenyl tetrazolium bromide]assay. MTT assay is based on the principle of uptake of MTT, a tetrazolium salt, by metabolically active cells where it is metabolized by active mitochondria into a blue colored formazon product, which can be read spectrometrically (J. of Immunological Methods 65: 55–63, 1983). To prepare the MTT stock solution needed, MTT was dissolved in phosphate buffered saline with a pH of 7.4 to obtain an MTT concentration of 5 mg/ml; the resulting mixture was filtered through a 0.22 micron filter to sterilize and remove a small amount of insoluble residue. This filtered mixture was the MTT stock solution.
# (§2) Briefly, for each tumor type, 10,000 cells were seeded in 96-well tissue culture plate and incubated with each peptide concentration individually in a CO2 incubator for 48 hrs. The peptide analog at different concentrations was added once every 24 hrs during the incubation period. Control cultures, which were not treated with the peptide was similarly incubated. The assay was terminated by adding 100 μg (20 μl) of MTT to each well, incubating for three hours, decanting supernatant and finally adding 150 μl of dimethylsulphoxide to each well to dissolve the formazon. The plates were incubated for 15 minutes at 37° C. and read spectrophotometrically at 540 nm; and cytotoxicity percentage was calculated by following formula: • Cytotoxicity Percentage=100×[1−X/R1], • where X=(absorbance of the treated sample at 540 nm-absorbance of a blank at 540 nn) and • R1=(absorbance of the untreated control at 540 nm)—(absorbance of the blank at 540 nm).
# (§3) Thus in each of the MTT cytotoxicity assay the percentage was calculated according to the above formula and was based on the proliferation of the untreated controls, the value of which was considered as 100°0.
# (§4) The biological activity of synthesized peptide SEQ ID NO:3 was tested on different human tumor cell lines such as HT-29 & PTC (colon), A549 (non small lung cell), KB (oral squamous cell), MCF7 & MDA.MB.453 (Breast), HuTu80 (duodenum), PA-1 (ovary), MOLT-4 (leukemia) and MlAPaCa2 (Pancreas) at various molar concentrations.
# HT-29 (colon) = test system: HT-29 (colon)
# Description: as §1, §2, §3, §4
# HuTu80 (duodenum) = test system: HuTu80 (duodenum)
# Description: as §1, §2, §3, §4
# KB (oral squamous cell) = conditions: 48 hrs
# Description: as §1, §2, §3, §4
# MCF7 (Breast) = test system: MCF7 (Breast)
# Description: as §1, §2, §3, §4
# MDA.MB.453 (Breast) = test system: MDA.MB.453 (Breast)
# Description: as §1, §2, §3, §4
# MOLT-4 (leukemia) = test system: MOLT-4 (leukemia)
# Description: as §1, §2, §3, §4
# MlAPaCa2 (Pancreas) = test system: MlAPaCa2 (Pancreas)
# Description: as §1, §2, §3, §4
# PA-1 (ovary) = test system: PA-1 (ovary)
# Description: as §1, §2, §3, §4
# PTC (colon) = conditions: 48 hrs
# Description: as §1, §2, §3, §4
smiles,measurement,setting,value
"CC(C)C[C@H](NC(=O)[C@H](Cc1c[nH]cn1)NC(=O)C(C)(C)NC(=O)[C@@H](NC(=O)[C@H](C)NC(=O)[C@H](Cc1c[nH]c2ccccc12)NC(=O)[C@H](CCC(N)=O)NC(=O)[C@H](N)Cc1ccccc1)C(C)C)C(N)=O [SEQ ID NO: 3, D-Phe-Gln-Trp-Ala-Val-Aib-His-Leu-NH2] (H-[dF]QWAV[Aib]HL-NH2; N-terminus assumed)",Percentage cytotoxicity,"[1]; A549, 10 pM, 48 hrs",30.5 ± 3.5%
same,Percentage cytotoxicity,"[1]; A549, 100 pM, 48 hrs",25.2 ± 3.5%
same,Percentage cytotoxicity,"[1]; A549, 10 nM, 48 hrs",32.2 ± 5.5%
same,Percentage cytotoxicity,"[1]; A549, 100 nM, 48 hrs",23.6 ± 4.5%
same,Percentage cytotoxicity,"[1]; A549, 1 μM, 48 hrs",30.7 ± 6.5%
same,Percentage cytotoxicity,"[1]; A549, 48 hrs",32.4 ± 4.5%
same,Percentage cytotoxicity,"HT-29 (colon); HT29, 10 pM, 48 hrs",18.7 ± 4.5%
same,Percentage cytotoxicity,"HT-29 (colon); HT29, 100 pM, 48 hrs",19.9 ± 5.5%
same,Percentage cytotoxicity,"HT-29 (colon); HT29, 10 nM, 48 hrs",11.8 ± 5.0%
same,Percentage cytotoxicity,"HT-29 (colon); HT29, 100 nM, 48 hrs",17.8 ± 4.5%
same,Percentage cytotoxicity,"HT-29 (colon); HT29, 1 μM, 48 hrs",25.4 ± 5.5%
same,Percentage cytotoxicity,"HT-29 (colon); HT29, 48 hrs",20.3 ± 4.5%
same,Percentage cytotoxicity,"HuTu80 (duodenum); HuTu80, 10 pM, 48 hrs",10.3 ± 3.5%
same,Percentage cytotoxicity,"HuTu80 (duodenum); HuTu80, 100 pM, 48 hrs",14.7 ± 4.2%
same,Percentage cytotoxicity,"HuTu80 (duodenum); HuTu80, 10 nM, 48 hrs",14.3 ± 3.5%
same,Percentage cytotoxicity,"HuTu80 (duodenum); HuTu80, 100 nM, 48 hrs",15.5 ± 4.7%
same,Percentage cytotoxicity,"HuTu80 (duodenum); HuTu80, 1 μM, 48 hrs",12.2 ± 4.0%
same,Percentage cytotoxicity,"HuTu80 (duodenum); HuTu80, 48 hrs",13.3 ± 4.0%
same,Percentage cytotoxicity,KB (oral squamous cell); 10 pM,40.9 ± 5.5%
same,Percentage cytotoxicity,KB (oral squamous cell); 100 pM,26.4 ± 4.5%
same,Percentage cytotoxicity,KB (oral squamous cell); 10 nM,30.9 ± 5.5%
same,Percentage cytotoxicity,KB (oral squamous cell); 100 nM,31.6 ± 6.5%
same,Percentage cytotoxicity,KB (oral squamous cell); 1 μM,32.1 ± 5.0%
same,Percentage cytotoxicity,KB (oral squamous cell),30.4 ± 6.5%
same,Percentage cytotoxicity,"MCF7 (Breast); MCF 7, 10 pM, 48 hrs",39.33 ± 2.6%
same,Percentage cytotoxicity,"MCF7 (Breast); MCF 7, 100 pM, 48 hrs",38.95 ± 4.5%
same,Percentage cytotoxicity,"MCF7 (Breast); MCF 7, 10 nM, 48 hrs",24.35 ± 5%
same,Percentage cytotoxicity,"MCF7 (Breast); MCF 7, 100 nM, 48 hrs",Nil
same,Percentage cytotoxicity,"MCF7 (Breast); MCF 7, 1 μM, 48 hrs",Nil
same,Percentage cytotoxicity,"MCF7 (Breast); MCF 7, 48 hrs",30.68 ± 6%
same,Percentage cytotoxicity,"MDA.MB.453 (Breast); MDA.MB.453, 10 pM, 48 hrs",49.5 ± 4.2%
same,Percentage cytotoxicity,"MDA.MB.453 (Breast); MDA.MB.453, 100 pM, 48 hrs",25.5 ± 2.9%
same,Percentage cytotoxicity,"MDA.MB.453 (Breast); MDA.MB.453, 10 nM, 48 hrs",Nil
same,Percentage cytotoxicity,"MDA.MB.453 (Breast); MDA.MB.453, 100 nM, 48 hrs",11.2 ± 3.1%
same,Percentage cytotoxicity,"MDA.MB.453 (Breast); MDA.MB.453, 1 μM, 48 hrs",5.6 ± 3.5%
same,Percentage cytotoxicity,"MDA.MB.453 (Breast); MDA.MB.453, 48 hrs",9.6 ± 1.9%
same,Percentage cytotoxicity,"MOLT-4 (leukemia); MOLT-4, 10 pM, 48 hrs",49.9 ± 4.1%
same,Percentage cytotoxicity,"MOLT-4 (leukemia); MOLT-4, 100 pM, 48 hrs",15.9 ± 3.0%
same,Percentage cytotoxicity,"MOLT-4 (leukemia); MOLT-4, 10 nM, 48 hrs",Nil
same,Percentage cytotoxicity,"MOLT-4 (leukemia); MOLT-4, 100 nM, 48 hrs",1.4 ± 1.0%
same,Percentage cytotoxicity,"MOLT-4 (leukemia); MOLT-4, 1 μM, 48 hrs",9.0 ± 1.2%
same,Percentage cytotoxicity,"MOLT-4 (leukemia); MOLT-4, 48 hrs",1.0 ± 0.4%
same,Percentage cytotoxicity,"MlAPaCa2 (Pancreas); MIAPaCa2, 10 pM, 48 hrs",27.4 ± 4.5%
same,Percentage cytotoxicity,"MlAPaCa2 (Pancreas); MIAPaCa2, 100 pM, 48 hrs",28.2 ± 4.5%
same,Percentage cytotoxicity,"MlAPaCa2 (Pancreas); MIAPaCa2, 10 nM, 48 hrs",33.2 ± 6.7%
same,Percentage cytotoxicity,"MlAPaCa2 (Pancreas); MIAPaCa2, 100 nM, 48 hrs",30.3 ± 4.2%
same,Percentage cytotoxicity,"MlAPaCa2 (Pancreas); MIAPaCa2, 1 μM, 48 hrs",33.3 ± 4.5%
same,Percentage cytotoxicity,"MlAPaCa2 (Pancreas); MIAPaCa2, 48 hrs",36.4 ± 0.5%
same,Percentage cytotoxicity,"PA-1 (ovary); PA-1, 10 pM, 48 hrs",37.7 ± 3.9%
same,Percentage cytotoxicity,"PA-1 (ovary); PA-1, 100 pM, 48 hrs",40.1 ± 6.2%
same,Percentage cytotoxicity,"PA-1 (ovary); PA-1, 10 nM, 48 hrs",25.4 ± 4.2%
same,Percentage cytotoxicity,"PA-1 (ovary); PA-1, 100 nM, 48 hrs",34.2 ± 5.8%
same,Percentage cytotoxicity,"PA-1 (ovary); PA-1, 1 μM, 48 hrs",31.2 ± 5.1%
same,Percentage cytotoxicity,"PA-1 (ovary); PA-1, 48 hrs",36.1 ± 6.1%
same,Percentage cytotoxicity,PTC (colon); 10 pM,80.0 ± 7.1%
same,Percentage cytotoxicity,PTC (colon); 100 pM,26.5 ± 3.8%
same,Percentage cytotoxicity,PTC (colon); 10 nM,27.7 ± 3.6%
same,Percentage cytotoxicity,PTC (colon); 100 nM,27.7 ± 2.8%
same,Percentage cytotoxicity,PTC (colon); 1 μM,17.9 ± 2.5%
same,Percentage cytotoxicity,PTC (colon),23.8 ± 2.8%
